# Source: US20040138245A1, “Product comprising mikanolide, dihydromikanolide or an analogue thereof combine with another anti-cancer agent for therapeutic use in cancer treatment” (priority 2001, published 2004)
# Where “and” joins values, the source holds several entries; their conditions need not be identical. Identical values can stand only once.
# Test system: HT-29 (human colon cancer cells)
# Assay: Measurement of cellular proliferation in vitro (WST1 colorimetric test, 120 hours)
# Assay type: cell-based
# Details: HT29 cells
# Description: The cell line HT-29 (human colon cancer cells) was acquired from the American Tissue Culture Collection (Rockville, Md., USA).
# The HT-29 cells (4000 cells/wells) are cultured on 96-well plates.
# On day 0, these cells are seeded in 90 μl of Dulbecco's modified Eagle medium (Gibco-Brl, Cergy-Pontoise, France) completed with 10% of foetal calf serum inactivated by heating (Gibco-Brl, Cergy-Pontoise, France), 50000 units/l of penicillin and 50 mg/l of streptomycin (Gibco-Brl, Cergy-Pontoise, France), and 2 mM of glutamine (Gibco-Brl, Cergy-Pontoise, France).
# The cells were treated simultaneously with concentrations of the compounds to be tested singly or in combination for 120 hours.
# At the end of the of this period, quantification of the cellular proliferation is evaluated by colorimetric test based on the cleavage of the tetrazolium salt WST1 by the mitochondrial […] in the living cells leading to the formation of formazan (Boehringer Mannheim, Meylan, France). These tests are carried out four times with 6 determinations for each single product and for each combination tested. This allows determination of the number of living cells at the end of each treatment.
compound,measurement,setting,value
"CC(C)[C@H](CO)Nc1nc(NCc2cccnc2)n2ncc(Br)c2n1 [Example B3, 8-bromo-2-(1R-isopropyl-2-hydroxyethylamino)-4-(3-pyridylmethylamino)pyrazolo[1,5-a]-1,3,5-triazine]",% of living cells,single compound at 100 nM,104%
"C[C@H]1C(=O)O[C@H]2C[C@]3(C)O[C@@H]3[C@@H]3O[C@@H]3C3=C[C@@H](OC3=O)[C@@H]21 [Example A1, dihydromikanolide]",% of living cells,single compound at 5 μg/ml,61% and 64%
"[NH2][Pt]([NH2])([Cl])[Cl] [Example B1, cisplatin, reference compound]",% of living cells,single compound at 6.25 μM,48%
"NC(CS)C(=O)N1CCn2cc(-c3ccccc3)nc2C1CC1CCCCC1 (stereo not drawn) [Example B2, 7-(2-amino-1-oxo-3-thiopropyl)-8-(cyclohexylmethyl)-2-phenyl-5,6,7,8-tetrahydroimidazo[1,2a]pyrazine]",% of living cells,single compound at 25 μM,37% and 64%
"4-(2-bromophenyl)-1-(2-(1-((4-cyano-3-methoxy)phenylmethyl)imidazo-5-yl)-1-oxoethyl)-1,2-dihydro-8-fluoroimidazol[1,2a][1,4]-benzodiazepine [Example B4]",% of living cells,single compound at 5 μM,93% and 78%
"hydrochloride of 8-(dimethylamino)-3,10a-dimethyl-2,6-dioxodecahydro-4,7-methenofuro[3,2-c]oxireno[f]oxacycloundecin-9-yl 2-naphthylcarbamate [Example A2]",% of living cells,single compound at 5 μM,67% and 72% and 55%
